Measurements taken from ChEMBL document CHEMBL5505982, “Design, synthesis, biological evaluation and in silico studies of novel quinoline derivatives as potential radioprotective molecules targeting the TLR2 and p53 pathways” (Eur J Med Chem, 2024).
Calls of active or inactive are those of the source. No cut-off for these calls is given here.

How the values were obtained:
[1] = system: AHH-1; assay: Cytotoxicity against human AHH-1 cells assessed as inhibition of cell growth incubated for 24 hrs by CCK-8 assay; type: functional, cell-based; settings: AHH-1, 24 h
[2] = system: AHH-1; assay: Anti-iradiation activity against human AHH-1 cells assessed as cell viability at 10 micromol preincubated with compound for 24 hrs followed by irradiation with 8 Gy and measured after 24 hrs by CCK-8 assay; type: functional; settings: dose 10 µmol; time 48 hrs
[3] = system: AHH-1; assay: Induction of apoptosis in human AHH-1 cells assessed as late apoptotic cells preincubated with compound for 24 hrs followed by irradiation with 8 Gy and measured after 24 hrs of radiation by Annexin V-FITC/PI staining based flow cytometry analysis (reference value: 33.6%); type: functional; settings: time 48 hrs
[4] = system: Mus musculus; assay: Radioprotective activity in irradiated C57BL/6J mouse model assessed as increase in HGB count at 300 mg/kg, ip preincubated with compound for 15 to 1440 mins followed by irradiation with 6.5 Gy and measured after 1 to 10 days of radiation; type: functional, organism-based
[5] = system: Mus musculus; assay: Radioprotective activity in C57BL/6J mouse assessed as survival rate at 30 mg/kg, ip preincubated with compound for 15 to 1440 mins followed by irradiation and measured at day 30; type: functional; settings: light or radiation study, time 15-44640 min
[6] = system: AHH-1; assay: Induction of apoptosis in human AHH-1 cells assessed as early apoptotic cells preincubated with compound for 24 hrs followed by irradiation with 6 Gy and measured after 24 hrs of radiation by Annexin V-FITC/PI staining based flow cytometry analysis (reference value: 14.1%); type: functional; settings: time 48 hrs
[7] = system: AHH-1; assay: Induction of apoptosis in human AHH-1 cells assessed as necrotic cells preincubated with compound for 24 hrs followed by irradiation with 8 Gy and measured after 24 hrs of radiation by Annexin V-FITC/PI staining based flow cytometry analysis (reference value: 4.86%); type: functional; settings: time 48 hrs
[8] = system: AHH-1; assay: Induction of apoptosis in human AHH-1 cells assessed as viable cells preincubated with compound for 24 hrs followed by irradiation with 8 Gy and measured after 24 hrs of radiation by Annexin V-FITC/PI staining based flow cytometry analysis (reference value: 45.1%); type: functional; settings: time 48 hrs
[9] = system: AHH-1; assay: Induction of apoptosis in human AHH-1 cells assessed as early apoptotic cells preincubated with compound for 24 hrs followed by irradiation with 4 Gy and measured after 24 hrs of radiation by Annexin V-FITC/PI staining based flow cytometry analysis (reference value: 14.3%); type: functional; settings: time 48 hrs
[10] = system: AHH-1; assay: Induction of apoptosis in human AHH-1 cells assessed as necrotic cells preincubated with compound for 24 hrs followed by irradiation with 4 Gy and measured after 24 hrs of radiation by Annexin V-FITC/PI staining based flow cytometry analysis (reference value: 1.06%); type: functional; settings: time 48 hrs
[11] = system: Mus musculus; assay: Radioprotective activity in irradiated C57BL/6J mouse model assessed as increase in platelets count at 300 mg/kg, ip preincubated with compound for 15 to 1440 mins followed by irradiation with 6.5 Gy and measured after 2 days of radiation; type: functional, organism-based; settings: time 15-4320 min
[12] = system: Mus musculus; assay: Radioprotective activity in irradiated C57BL/6J mouse model assessed as increase in RBC count at 300 mg/kg, ip preincubated with compound for 15 to 1440 mins followed by irradiation with 6.5 Gy and measured after 10 to 13 days of radiation; type: functional, organism-based; settings: Erythrocyte
[13] = system: AHH-1; assay: Induction of apoptosis in human AHH-1 cells assessed as necrotic cells preincubated with compound for 24 hrs followed by irradiation with 6 Gy and measured after 24 hrs of radiation by Annexin V-FITC/PI staining based flow cytometry analysis (reference value: 3.71%); type: functional; settings: time 48 hrs
[14] = system: AHH-1; assay: Induction of apoptosis in human AHH-1 cells assessed as viable cells preincubated with compound for 24 hrs followed by irradiation with 4 Gy and measured after 24 hrs of radiation by Annexin V-FITC/PI staining based flow cytometry analysis (reference value: 66.9 %); type: functional; settings: time 48 hrs
[15] = system: AHH-1; assay: Induction of apoptosis in human AHH-1 cells assessed as late apoptotic cells preincubated with compound for 24 hrs followed by irradiation with 4 Gy and measured after 24 hrs of radiation by Annexin V-FITC/PI staining based flow cytometry analysis (reference value: 17.7%); type: functional; settings: time 48 hrs
[16] = system: Mus musculus; assay: Radioprotective activity in irradiated C57BL/6J mouse model assessed as increase in WBC count at 300 mg/kg, ip preincubated with compound for 15 to 1440 mins followed by irradiation with 6.5 Gy and measured on day 1 (reference value: 43.39%); type: functional; settings: time 15-2880 min
[17] = system: AHH-1; assay: Induction of apoptosis in human AHH-1 cells assessed as viable cells preincubated with compound for 24 hrs followed by irradiation with 6 Gy and measured after 24 hrs of radiation by Annexin V-FITC/PI staining based flow cytometry analysis (reference value: 52.3%); type: functional; settings: time 48 hrs
[18] = system: Mus musculus; assay: Radioprotective activity in irradiated C57BL/6J mouse model assessed as increase in platelets count at 300 mg/kg, ip preincubated with compound for 15 to 1440 mins followed by irradiation with 6.5 Gy and measured after 10 to 13 days of radiation; type: functional, organism-based
[19] = system: Mus musculus; assay: Radioprotective activity in irradiated C57BL/6J mouse model assessed as increase in platelets count at 300 mg/kg, ip preincubated with compound for 15 to 1440 mins followed by irradiation with 6.5 Gy and measured after 3 to 10 days of radiation; type: functional, organism-based
[20] = system: Mus musculus; assay: Radioprotective activity in irradiated C57BL/6J mouse model assessed as increase in HGB count at 300 mg/kg, ip preincubated with compound for 15 to 1440 mins followed by irradiation with 6.5 Gy and measured after 13 days of radiation; type: functional, organism-based; settings: time 15-20160 min
[21] = system: AHH-1; assay: Induction of apoptosis in human AHH-1 cells assessed as early apoptotic cells preincubated with compound for 24 hrs followed by irradiation with 8 Gy and measured after 24 hrs of radiation by Annexin V-FITC/PI staining based flow cytometry analysis (reference value: 16.5%); type: functional; settings: time 48 hrs
[22] = system: Mus musculus; assay: Radioprotective activity in irradiated C57BL/6J mouse model assessed as increase in RBC count at 300 mg/kg, ip preincubated with compound for 15 to 1440 mins followed by irradiation with 6.5 Gy and measured after 13 days of radiation; type: functional, organism-based; settings: Erythrocyte, time 15-20160 min
[23] = system: AHH-1; assay: Induction of apoptosis in human AHH-1 cells assessed as late apoptotic cells preincubated with compound for 24 hrs followed by irradiation with 6 Gy and measured after 24 hrs of radiation by Annexin V-FITC/PI staining based flow cytometry analysis (reference value: 29.8%); type: functional; settings: time 48 hrs

O=C(O)c1ccc(CS(=O)(=O)c2ccc3cc(F)ccc3n2)cc1
IC50 [1]: > 640 µM

Brc1ccc2nc(SCc3ccccc3)ccc2c1
IC50 [1]: > 640 µM

O=S(=O)(Cc1ccc(F)cc1)c1ccc2cc(Cl)ccc2n1
IC50 [1]: > 640 µM

O=S(=O)(Cc1ccc(Cl)cc1)c1ccc2ccccc2n1
IC50 [1]: 129 µM

[O-][S+](Cc1ccc(Br)cc1)c1ccc2ccccc2n1 (centres undefined)
IC50 [1]: > 640 µM

O=S(=O)(Cc1ccc(F)cc1)c1ccc2cc(Br)ccc2n1
IC50 [1]: > 640 µM

O=S(=O)(Cc1ccc(Br)cc1)c1ccc2cc(Cl)ccc2n1
IC50 [1]: > 640 µM

Fc1ccc(CSc2ccc3cc(Br)ccc3n2)cc1
Activity [2]: 26.21% | IC50 [1]: > 640 µM

[O-][S+](Cc1ccc(Cl)cc1)c1ccc2cc(Br)ccc2n1 (centres undefined)
Activity [2]: 30.63% | IC50 [1]: 224 µM

[O-][S+](Cc1ccc(F)cc1)c1ccc2ccccc2n1 (centres undefined)
IC50 [1]: > 640 µM

Clc1ccc(CSc2ccc3cc(Br)ccc3n2)cc1
IC50 [1]: 215 µM

Clc1ccc(CSc2ccc3cc(Cl)ccc3n2)cc1
IC50 [1]: > 640 µM

O=S(=O)(Cc1ccccc1)c1ccc2cc(F)ccc2n1
IC50 [1]: > 640 µM

O=S(=O)(Cc1ccc(Cl)cc1)c1ccc2cc(Br)ccc2n1
Activity [2]: 27.81% | IC50 [1]: > 640 µM

Brc1ccc(CSc2ccc3cc(Br)ccc3n2)cc1
IC50 [1]: > 640 µM

O=S(=O)(Cc1ccccc1)c1ccc2cc(Br)ccc2n1
IC50 [1]: 169 µM

O=S(=O)(Cc1ccc(Br)cc1)c1ccc2ccccc2n1
IC50 [1]: > 640 µM

Fc1ccc2nc(SCc3ccccc3)ccc2c1
IC50 [1]: > 640 µM

N#Cc1ccc(CS(=O)(=O)c2ccc3cc(Cl)ccc3n2)cc1
IC50 [1]: > 640 µM

[O-][S+](Cc1ccccc1)c1ccc2cc(Br)ccc2n1 (centres undefined)
IC50 [1]: > 640 µM

[O-][S+](Cc1ccc(Cl)cc1)c1ccc2ccccc2n1 (centres undefined)
IC50 [1]: 97 µM

N#Cc1ccc(CSc2ccc3cc(Br)ccc3n2)cc1
IC50 [1]: 146 µM

Fc1ccc(CSc2ccc3cc(Cl)ccc3n2)cc1
IC50 [1]: 153 µM

O=C(O)c1ccc(CSc2ccc3cc(Cl)ccc3n2)cc1
IC50 [1]: > 640 µM

N#Cc1ccc(C[S+]([O-])c2ccc3cc(Cl)ccc3n2)cc1 (centres undefined)
IC50 [1]: > 640 µM

O=C([O-])c1ccc(/C=C/S(=O)(=O)Cc2ccc(Cl)cc2)cc1.[Na+] [RECILISIB SODIUM]
Activity [3]: 27.3% | Activity [4]: inactive | survival at 30 mg/kg [5]: 40% | Activity [6]: 14.8% | Activity [7]: 8.35% | Activity [8]: 48% | Activity [9]: 16.5% | Activity [10]: 4.82% | Activity [11]: Active | Activity [12]: Active | Activity [13]: 7.68% | Activity [14]: 47.5% | IC50 [1]: > 640 µM | Activity [15]: 31.1% | Activity [16]: 47.73% | Activity [17]: 49.2% | Activity [18]: Active | Activity [19]: inactive | Activity [20]: Active | Activity [21]: 16.4% | Activity [22]: Active | Activity [23]: 28.4%

O=S(=O)(Cc1ccc(Cl)cc1)c1ccc2cc(Cl)ccc2n1
IC50 [1]: > 640 µM

O=S(=O)(Cc1ccc(F)cc1)c1ccc2cc(F)ccc2n1
Activity [2]: 27.51% | IC50 [1]: > 640 µM

[O-][S+](Cc1ccc(Cl)cc1)c1ccc2cc(Cl)ccc2n1 (centres undefined)
IC50 [1]: > 640 µM

Fc1ccc(CSc2ccc3ccccc3n2)cc1
IC50 [1]: > 640 µM

Clc1ccc2nc(SCc3ccc(Br)cc3)ccc2c1
IC50 [1]: > 640 µM

[O-][S+](Cc1ccc(F)cc1)c1ccc2cc(F)ccc2n1 (centres undefined)
IC50 [1]: > 640 µM

N#Cc1ccc(C[S+]([O-])c2ccc3cc(Br)ccc3n2)cc1 (centres undefined)
IC50 [1]: 212 µM

Fc1ccc(CSc2ccc3cc(F)ccc3n2)cc1
IC50 [1]: > 640 µM

N#Cc1ccc(CSc2ccc3cc(Cl)ccc3n2)cc1
IC50 [1]: > 640 µM

[O-][S+](Cc1ccc(F)cc1)c1ccc2cc(Cl)ccc2n1 (centres undefined)
IC50 [1]: > 640 µM

[O-][S+](Cc1ccc(Br)cc1)c1ccc2cc(Cl)ccc2n1 (centres undefined)
IC50 [1]: > 640 µM

O=S(=O)(Cc1ccc(Br)cc1)c1ccc2cc(Br)ccc2n1
IC50 [1]: > 640 µM

Brc1ccc(CSc2ccc3ccccc3n2)cc1
IC50 [1]: 174 µM

[O-][S+](Cc1ccc(Br)cc1)c1ccc2cc(Br)ccc2n1 (centres undefined)
IC50 [1]: > 640 µM

O=C(O)c1ccc(C[S+]([O-])c2ccc3cc(F)ccc3n2)cc1 (centres undefined)
survival at 30 mg/kg [5]: 50% | Activity [2]: 30.18% | IC50 [1]: > 640 µM

Clc1ccc(CSc2ccc3ccccc3n2)cc1
IC50 [1]: 73 µM
